Test results reported in patent publication US10286022B2, “Medicinal composition of extract of seed of emblica officinalis and method of preparing the same” (priority 2013, dated 2019).

Tests used:
HMG-CoA Reductase (HMGR) = target: T1, HMG-CoA Reductase (HMGR) (Homo sapiens, UniProt P04035); assay: HMG-CoA reductase inhibition assay (Example 30); type: biochemical; details: read-out: % Inhibition over control
T1 sequence (P04035 426-888 limits assumed): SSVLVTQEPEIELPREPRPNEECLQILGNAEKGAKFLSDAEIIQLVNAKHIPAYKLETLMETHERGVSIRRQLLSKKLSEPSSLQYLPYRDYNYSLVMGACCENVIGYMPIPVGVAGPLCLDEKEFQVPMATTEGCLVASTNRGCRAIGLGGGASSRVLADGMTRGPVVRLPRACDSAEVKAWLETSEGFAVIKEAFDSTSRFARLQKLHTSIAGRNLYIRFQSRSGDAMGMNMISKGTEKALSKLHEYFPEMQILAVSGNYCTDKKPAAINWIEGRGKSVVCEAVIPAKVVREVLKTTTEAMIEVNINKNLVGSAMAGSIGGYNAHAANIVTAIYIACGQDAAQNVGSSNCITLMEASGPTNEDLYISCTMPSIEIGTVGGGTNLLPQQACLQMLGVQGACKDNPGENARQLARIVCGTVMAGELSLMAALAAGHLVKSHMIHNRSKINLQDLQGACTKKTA
Procedure: Amla seed extract prepared as per example 1 and water extract of dried Amla seed prepared as per example 8 was weighed separately and each extract was dissolved in dimethyl sulfoxide (DMSO) to prepare a stock of 400 mg/ml stock solution of each. From this stock, different dose levels were prepared in DMSO for further experimental use. […] The optical density (OD) values were recorded using spectrophotometer at regular time intervals. […] Based on the specific activity values from all the test doses, EC50 (Effective Concentration 50) were determined by plotting a curve between Specific activity Vs. Test concentration. EC50 values (μg/ml) and IC50 (μM) were determined by interpolation method by using Graph pad prism, version 5.01.

[1] = test system: streptozotocin induced diabetic rats; assay: Antidiabetic activity in streptozotocin induced diabetic rats (Example 22); type: in vivo, rat
Procedure: The amla seed extract as prepared in example 1 was evaluated for antidiabetic activity in experimental rats. Male/Female albino wistar rats were maintained as per standard guidelines: housed in polypropylene cages, under 12 hour artificial light and dark cycles at a temperature of 24±2° C., given a standard pellet diet and water ad libitum. The animals were acclimatized to the animal house conditions for a week before beginning the experiment. Diabetes was induced by injecting streptozotocin 35 mg/kg dissolved in 0.1M citrate buffer of pH 4.5, intra-peritoneally. […] Animals with FBG above 200 mg/dl were considered diabetic. The diabetic animals were randomly divided into three groups of six animals each. […] The plasma CRP level was measured initially and then at Day 28 of the study.

Row | SMILES | inhibition at 2.5 µM (HMG-CoA Reductase (HMGR); test concentration 2.5 μM) | inhibition at 5 µM (HMG-CoA Reductase (HMGR); test concentration 5 μM) | inhibition at 10 µM (HMG-CoA Reductase (HMGR); test concentration 10 μM) | inhibition at 20 µM (HMG-CoA Reductase (HMGR); test concentration 20 μM) | inhibition at 40 µM (HMG-CoA Reductase (HMGR); test concentration 40 μM) | inhibition at 60 µM (HMG-CoA Reductase (HMGR); test concentration 60 μM) | inhibition at 80 µM (HMG-CoA Reductase (HMGR); test concentration 80 μM) | inhibition at 100 µM (HMG-CoA Reductase (HMGR); test concentration 100 μM) | Fasting Blood Glucose level Day 7 ([1]; 0.5 mg/kg for 28 days) | Fasting Blood Glucose level Day 14 ([1]; 0.5 mg/kg for 28 days) | Fasting Blood Glucose level Day 21 ([1]; 0.5 mg/kg for 28 days) | Fasting Blood Glucose level Day 28 ([1]; 0.5 mg/kg for 28 days) | effect on blood glucose level ([1]; 0.5 mg/kg for 28 days) | Fasting Blood Glucose level Day 1 (Initial) ([1]; 0.5 mg/kg for 28 days group) | effect on CRP level ([1]; 0.5 mg/kg for 28 days, compared to initial CRP value) | CRP level Day 28 (Final) ([1]; plasma, 0.5 mg/kg for 28 days) | CRP level Day 1 (Initial) ([1]; plasma, 0.5 mg/kg for 28 days group)
1 | CC[C@H](C)C(=O)O[C@H]1C[C@@H](C)C=C2C=C[C@H](C)[C@H](CC[C@@H]3C[C@@H](O)CC(=O)O3)[C@H]21 [LOVASTATIN, lovastatin] | 37% | 37.6% | 37.7% | 41.5% | 55.6% | 76.5% | 86.6% | 98.5% |  |  |  |  |  |  |  |  | 
2 | COc1ccc(Cl)cc1C(=O)NCCc1ccc(S(=O)(=O)NC(=O)NC2CCCCC2)cc1 [Glibenclamide] |  |  |  |  |  |  |  |  | 211 mg/dL | 179 mg/dL | 136 mg/dL | 109 mg/dL | decreased the blood glucose level to nearly normal | 406 mg/dL | failed to decrease the CRP level significantly | 9.6 mg/L | 10.8 mg/L
